Target: T1, L-type calcium channel, the α1C subunit (Homo sapiens, UniProt Q13936)
T1 construct: expressed in transfected cells
Assay: FLIPR assay of K+-stimulated calcium influx in C1-6-37-3 cells (HEK 293 stably transfected with L-type α1C channel and Kir 2.3)
Type: cell-based
Conditions: fluo-3 loaded cells, increasing potassium concentration (FIG. 4)
Description: The cell line used in this embodiment has a stably transfected L-type calcium channel, the α1C subunit. It also was transfected with the Kir 2.3 inward rectifier K channel, which allows for control of cell membrane potential through alteration of extracellular [K^+]o. Preincubation of the cells for 10 min in 30 mM [K^+]o partially depolarizes the cells.
Specifically exemplified herein is an assay to determine state-dependent drug-calcium channel interactions using a cell line that co-expresses a potassium channel (Kir2.3) that determines the resting membrane potential of the cells as a function of the external potassium ion concentration ([K]o) and a voltage gated calcium channel. Co-expressed in these cells is the L-type voltage gated calcium channel complex (alpha1C, alpha2-delta, beta2a). Potassium is used in a two step manner in this assay. First it is used to set the resting membrane potential (Vm) during antagonist incubation. […] This calcium influx is detected using a calcium sensitive dye (eg Fluo-3, Fluo4, Fura2, etc.). If the calcium influx is diminished by exposure to antagonists, this will be detected when compared to the control condition.
Hek 293 cells were stably transfected with the alpha 1C subunit of the L-type Calcium ion channel and Kir 2.3 inward K^+ rectifying channel (C1-6-37-3 cells). Calcium influx into the cells was measured in a FLIPR™ (Molecular Devices, CA). […]

T1 sequence (Q13936 whole entry): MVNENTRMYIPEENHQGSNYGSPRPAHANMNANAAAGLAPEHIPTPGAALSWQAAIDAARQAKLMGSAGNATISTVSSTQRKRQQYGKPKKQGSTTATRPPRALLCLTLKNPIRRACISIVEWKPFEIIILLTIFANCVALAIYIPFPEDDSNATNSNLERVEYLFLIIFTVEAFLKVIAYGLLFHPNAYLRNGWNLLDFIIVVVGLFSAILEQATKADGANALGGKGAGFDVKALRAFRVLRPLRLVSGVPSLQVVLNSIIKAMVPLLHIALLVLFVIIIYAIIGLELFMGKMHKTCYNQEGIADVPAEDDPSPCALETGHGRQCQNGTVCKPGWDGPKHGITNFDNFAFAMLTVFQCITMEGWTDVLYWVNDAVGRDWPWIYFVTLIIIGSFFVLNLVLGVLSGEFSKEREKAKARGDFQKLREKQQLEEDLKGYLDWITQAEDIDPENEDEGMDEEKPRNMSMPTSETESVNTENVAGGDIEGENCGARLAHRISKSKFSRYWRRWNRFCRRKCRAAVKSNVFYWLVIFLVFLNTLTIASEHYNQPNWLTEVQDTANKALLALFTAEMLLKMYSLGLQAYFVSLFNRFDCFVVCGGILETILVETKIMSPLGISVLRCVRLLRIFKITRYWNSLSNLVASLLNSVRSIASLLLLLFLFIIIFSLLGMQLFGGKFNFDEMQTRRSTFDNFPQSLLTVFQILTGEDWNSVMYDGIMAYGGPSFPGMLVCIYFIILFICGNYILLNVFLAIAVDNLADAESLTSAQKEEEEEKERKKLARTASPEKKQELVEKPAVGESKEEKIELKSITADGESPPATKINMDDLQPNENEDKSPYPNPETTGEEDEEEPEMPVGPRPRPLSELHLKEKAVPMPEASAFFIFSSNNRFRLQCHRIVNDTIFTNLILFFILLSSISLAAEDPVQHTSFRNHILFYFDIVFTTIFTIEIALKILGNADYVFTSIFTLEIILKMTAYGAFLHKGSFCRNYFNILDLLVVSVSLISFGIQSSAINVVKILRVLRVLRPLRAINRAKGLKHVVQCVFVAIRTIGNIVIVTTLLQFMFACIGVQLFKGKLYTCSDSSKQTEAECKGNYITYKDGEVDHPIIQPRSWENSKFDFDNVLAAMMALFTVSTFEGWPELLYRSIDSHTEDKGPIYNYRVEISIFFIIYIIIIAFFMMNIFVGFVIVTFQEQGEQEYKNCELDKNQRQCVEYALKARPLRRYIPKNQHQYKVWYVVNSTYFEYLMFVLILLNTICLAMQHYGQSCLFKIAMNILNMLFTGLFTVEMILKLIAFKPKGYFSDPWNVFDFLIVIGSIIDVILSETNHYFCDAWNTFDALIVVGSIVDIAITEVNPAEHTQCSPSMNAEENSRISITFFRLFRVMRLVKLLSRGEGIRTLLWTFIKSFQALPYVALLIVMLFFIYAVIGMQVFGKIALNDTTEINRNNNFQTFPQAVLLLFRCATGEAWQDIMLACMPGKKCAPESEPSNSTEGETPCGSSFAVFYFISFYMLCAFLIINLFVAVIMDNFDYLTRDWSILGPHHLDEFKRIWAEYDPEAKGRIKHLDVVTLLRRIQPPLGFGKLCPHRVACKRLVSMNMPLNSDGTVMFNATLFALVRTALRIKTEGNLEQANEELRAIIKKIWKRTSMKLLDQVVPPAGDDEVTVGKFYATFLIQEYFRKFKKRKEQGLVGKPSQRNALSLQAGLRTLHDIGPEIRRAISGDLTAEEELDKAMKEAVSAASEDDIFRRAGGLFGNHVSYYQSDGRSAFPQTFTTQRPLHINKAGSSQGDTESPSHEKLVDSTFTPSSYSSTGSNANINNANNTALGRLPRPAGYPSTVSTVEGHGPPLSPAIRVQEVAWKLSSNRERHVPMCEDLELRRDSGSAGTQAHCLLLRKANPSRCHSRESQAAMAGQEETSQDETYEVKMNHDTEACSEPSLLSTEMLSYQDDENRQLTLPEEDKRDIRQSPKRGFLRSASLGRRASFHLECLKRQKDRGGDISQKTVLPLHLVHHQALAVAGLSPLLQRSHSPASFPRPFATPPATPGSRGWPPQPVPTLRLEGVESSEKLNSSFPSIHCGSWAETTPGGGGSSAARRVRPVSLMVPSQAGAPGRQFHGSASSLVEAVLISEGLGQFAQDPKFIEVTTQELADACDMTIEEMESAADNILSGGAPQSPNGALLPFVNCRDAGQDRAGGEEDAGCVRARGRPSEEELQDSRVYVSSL
T1 sequence (P54289 25-946 partner limits assumed): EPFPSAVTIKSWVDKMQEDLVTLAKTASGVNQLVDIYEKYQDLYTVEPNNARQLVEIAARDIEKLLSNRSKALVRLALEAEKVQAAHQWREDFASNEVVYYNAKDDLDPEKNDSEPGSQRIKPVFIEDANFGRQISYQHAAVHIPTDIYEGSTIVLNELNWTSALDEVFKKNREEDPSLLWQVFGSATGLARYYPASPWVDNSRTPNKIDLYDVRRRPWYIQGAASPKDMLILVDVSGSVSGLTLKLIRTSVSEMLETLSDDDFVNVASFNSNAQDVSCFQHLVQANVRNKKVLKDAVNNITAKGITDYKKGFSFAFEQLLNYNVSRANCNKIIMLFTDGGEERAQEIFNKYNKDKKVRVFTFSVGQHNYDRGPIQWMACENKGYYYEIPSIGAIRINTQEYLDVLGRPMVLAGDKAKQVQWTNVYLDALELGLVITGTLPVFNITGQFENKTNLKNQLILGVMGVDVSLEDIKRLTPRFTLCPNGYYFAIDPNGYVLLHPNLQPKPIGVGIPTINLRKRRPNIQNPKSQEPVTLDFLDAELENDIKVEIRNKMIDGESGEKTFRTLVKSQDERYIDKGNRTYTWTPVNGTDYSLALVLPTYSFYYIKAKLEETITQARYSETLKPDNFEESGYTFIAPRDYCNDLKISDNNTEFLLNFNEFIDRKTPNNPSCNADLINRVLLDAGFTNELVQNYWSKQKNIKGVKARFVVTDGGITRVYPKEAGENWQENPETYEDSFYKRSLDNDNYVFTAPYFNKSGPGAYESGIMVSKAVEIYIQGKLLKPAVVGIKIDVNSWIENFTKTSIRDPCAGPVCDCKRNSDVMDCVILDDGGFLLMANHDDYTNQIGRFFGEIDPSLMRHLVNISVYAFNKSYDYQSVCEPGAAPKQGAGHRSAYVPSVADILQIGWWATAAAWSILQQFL
T1 sequence (P54289 947-1103 partner limits assumed): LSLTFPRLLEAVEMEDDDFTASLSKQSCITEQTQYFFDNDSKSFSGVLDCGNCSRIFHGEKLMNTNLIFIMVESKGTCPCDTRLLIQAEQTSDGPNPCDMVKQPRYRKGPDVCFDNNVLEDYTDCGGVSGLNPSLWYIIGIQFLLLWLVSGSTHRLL
T1 sequence (Q08289 whole entry partner): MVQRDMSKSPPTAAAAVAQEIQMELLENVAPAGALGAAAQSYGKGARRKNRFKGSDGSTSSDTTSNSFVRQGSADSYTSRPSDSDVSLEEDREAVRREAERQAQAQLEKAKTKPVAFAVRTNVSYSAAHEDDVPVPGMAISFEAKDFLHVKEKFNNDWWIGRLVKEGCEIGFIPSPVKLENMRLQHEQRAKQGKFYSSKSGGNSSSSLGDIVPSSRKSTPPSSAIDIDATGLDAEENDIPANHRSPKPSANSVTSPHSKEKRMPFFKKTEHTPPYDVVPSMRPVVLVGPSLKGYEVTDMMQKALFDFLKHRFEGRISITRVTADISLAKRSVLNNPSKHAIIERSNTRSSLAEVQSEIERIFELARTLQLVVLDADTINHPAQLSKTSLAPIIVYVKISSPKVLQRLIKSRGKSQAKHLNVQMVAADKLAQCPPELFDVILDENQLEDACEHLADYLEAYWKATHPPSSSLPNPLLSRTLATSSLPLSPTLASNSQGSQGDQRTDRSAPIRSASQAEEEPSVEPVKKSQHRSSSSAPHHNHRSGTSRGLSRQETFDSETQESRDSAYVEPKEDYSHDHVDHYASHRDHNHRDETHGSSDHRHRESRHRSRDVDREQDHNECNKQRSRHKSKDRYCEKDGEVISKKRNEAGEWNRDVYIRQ

EC50: 11 mM
Compound: [K+] [K^+]
